Source: patent US10377770B2 (Novartis AG, priority 2015, dated 2019)

Target: C-Raf FL (full length CRAF with Y340E and Y341E activating mutations, co-expressed with h14-3-3 zeta) (Homo sapiens (Human), UniProt P04049, Y340E/Y341E)
Experiment: In vitro Raf activity determination, AlphaScreen p-MEK readout, c-Raf (C-Raf FL)
Type: biochemical
Settings: c-Raf approximately 4 nM, ATP 1 μM, pre-incubation 60 minutes, reaction 1 hour
In short: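 Full-length C-Raf (~4 nM) pre-incubated 60 min at room temperature with compound and kinase-dead biotinylated MEK1 (~10 nM) in Tris pH 7.5, 15 mM MgCl2, BSA, DTT. Reaction started with 1 μM ATP and run 1 h at room temperature. Phospho-MEK detected by AlphaScreen with anti-p-MEK antibody.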

Compared with `Cc1ccc(NC(=O)c2ccnc(C(C)(F)F)c2)cc1-c1ccc2c(c1)N1CCOC[C@@H]1[C@](C)(C#N)C2` [Example 374, N-(3-((4aS,5R)-5-cyano-5-methyl-1,2,4,4a,5,6-hexahydro-[1,4]oxazino[4,3-a]quinolin-9-yl)-4-methylphenyl)-2-(1,1-difluoroethyl)isonicotinamide], `Cc1ccc(NC(=O)c2cnnc(C(F)(F)F)c2)cc1-c1cc(F)c2c(c1)N1CCOC[C@H]1[C@@](F)(CO)C2` [Example 433, N-(3-((4aS,5R)-5,7-difluoro-5-(hydroxymethyl)-1,2,4,4a,5,6-hexahydro-[1,4]oxazino[4,3-a]quinolin-9-yl)-4-methylphenyl)-6-(trifluoromethyl)pyridazine-4-carboxamide] is 2-fold lower in IC50: 0.2 nM for the first, 0.1 nM for the second. The second is the more potent here.

`CCN1C(=O)[C@@H]2COCC[C@@]2(C)c2cc(-c3cc(NC(=O)c4ccnc(C(C)(F)F)c4)ccc3C)cnc21` (stereo in doubt) [Example 343, 2-(1,1-difluoroethyl)-N-(3-((4a,10b-trans)6-ethyl-10b-methyl-5-oxo-2,4,4a,5,6,10b-hexahydro-1H-pyrano[3,4-c][1,8]naphthyridin-9-yl)-4-methylphenyl)isonicotinamide] and `CCN1C(=O)[C@H]2COCC[C@@H]2c2cc(-c3cc(NC(=O)c4cccc(C(F)(F)F)c4)cnc3C)cnc21` [Example 309, N-(5-((4aR, 10bS)-6-ethyl-5-oxo-1,4,4a,5,6,10b-hexahydro-2H-pyrano[3,4 - c][1,8]naphthyridin-9-yl)-6-methylpyridin-3-yl)-3-(trifluoromethyl) benzamide] are within 1.5-fold of each other in IC50: 0.2 nM for the first, 0.3 nM for the second.

First: Cc1ccc(NC(=O)c2ccnc(C(F)(F)F)c2)cc1-c1cnc2c(c1)C1C3COCC3C1C(=O)N2CCO (centres unmarked) [Example 281, N-(3-(5-(2-hydroxyethyl)-6-oxo-5,6,6a,6b,7,9,9a,9b-octahydrofuro[3′,4′: 3,4]cyclobuta[1,2-c][1,8]naphthyridin-2-yl)--4-methylphenyl)-2-(trifluoromethyl) isonicotinamide]
Second: CNC(=O)C1Cc2ccc(-c3cc(NC(=O)c4cccc(C(F)(F)F)c4)cnc3C)cc2N2CCOCC12 (racemic) [Example 68, (rac)-N-methyl-9-(2-methyl-5-(3-(trifluoromethyl)benzamido)pyridin-3-yl)-1,2,4,4a,5,6-hexahydro-[1,4]oxazino[4,3-a]quinoline-5-carboxamide]
The IC50 of the first is 1.7-fold lower: 0.2 nM for the first, 0.34 nM for the second.

Going from `Cc1ccc(NC(=O)c2cnnc(C(F)(F)F)c2)cc1-c1cnc2c(c1)N1CCOC[C@@H]1CC(=O)N2CCO` [Example 324, (S)-N-(3-(7-(2-hydroxyethyl)-6-oxo-2,4,4a,5,6,7-hexahydro-1H-[1,4]oxazino[4,3-d]pyrido[2,3-b][1,4]diazepin-10-yl)-4-methylphenyl)-6-(trifluoromethyl) pyridazine-4-carboxamide] to `Cc1ccc(NC(=O)c2ccnc(C(F)(F)F)c2)cc1-c1cnc2c(c1)[C@@H]1CCOC[C@H]1C(=O)N2C(C)C` [Example 261, N-(3-((4aS, 10bR)-6-isopropyl-5-oxo-2,4,4a,5,6,10b-hexahydro-1H-pyrano[3,4-c][1,8]naphthyridin-9-yl)-4-methylphenyl)-2 (trifluoromethyl) isonicotinamide], the IC50 falls from 0.8 nM to 0.2 nM (4-fold). The second is the more potent here.

First: (R)-2-(1,1- difluoroethyl)-3- fluoro-N-(3-(7-(2- hydroxyethyl)-6- oxo-2,4,4a,5,6,7- hexahydro-1H- [1,4]oxazino[4,3- d]pyrido[2,3- b][1,4]diazepin-10- yl)-4- methylphenyl) isonicotinamide [Example 308]
Second: Cc1ccc(NC(=O)c2ccnc(C(C)(F)F)c2)cc1-c1cnc2c(c1)C1C3COCC3C1C(=O)N2CCO (centres unmarked) [Example 279, 2-(1,1-difluoroethyl)-N-(3-(5-(2-hydroxyethyl)-6-oxo-5,6,6a,6b,7,9,9a,9b-octahydrofuro[3′,4′: 3,4]cyclobuta[1,2-c][1,8]naphthyridin-2-yl)-4-methylphenyl) isonicotinamide]
The IC50 of the first is 1.7-fold higher: 0.7 nM for the first, 0.4 nM for the second.

Going from `CCN1C(=O)[C@@H]2COCC[C@H]2c2cc(-c3cc(NC(=O)c4cccc(C(F)(F)F)c4F)cnc3C)cnc21` [Example 256, N-(5-((4aS, 10bR)-6-ethyl-5-oxo-2,4,4a,5,6,10b-hexahydro-1H-pyrano[3,4-c][1,8]naphthyridin-9-yl)-6-methylpyridin-3-yl)-2-fluoro-3-(trifluoromethyl) benzamide] to `Cc1ncc(NC(=O)c2ccnc(C(F)(F)F)c2)cc1-c1ccc2c(c1)N1CCOCC[C@H]1C[C@@H]2O` [Example 443, N-(5-((5aS,7S)-7-hydroxy-1,2,5,5a,6,7-hexahydro-4H-[1,4]oxazepino [4,5-a]quinolin-10-yl)-6-methylpyridin-3-yl)-2-(trifluoromethyl) isonicotinamide], the IC50 rises from 0.1 nM to 0.6 nM (6-fold).

Compared with `CCN1C(=O)C[C@@H]2COCCN2c2cc(-c3cc(NC(=O)c4cnnc(C(F)(F)F)c4)ccc3C)cnc21` [Example 325, (R)-N-(3-(7-ethyl-6-oxo-2,4,4a,5,6,7-hexahydro-1H-[1,4]oxazino[4,3-d]pyrido[2,3-b][1,4]diazepin-10-yl)-4-methylphenyl)-6-(trifluoromethyl) pyridazine-4-carboxamide], `Cc1ncc(NC(=O)c2ccnc(C(C)(F)F)c2)cc1-c1ccc2c(c1)N1CCOCCC1CC2O` (racemic) [Example 96, (rac)-2-(1,1-difluoroethyl)-N-(5-(7-hydroxy-1,2,5,5a,6,7-hexahydro-4H-[1,4]oxazepino[4,5-a]quinolin-10-yl)-6-methylpyridin-3-yl)isonicotinamide] is 1.9-fold lower in IC50: 0.1 nM for the first, 0.053 nM for the second. The second is the more potent here.

First: Cc1ncc(NC(=O)c2cccc(C(F)(F)F)c2)cc1-c1cc(F)c2c(c1)N1CCOC[C@H]1[C@](F)(CO)C2 [Example 421, N-(5-((4aS,5S)-5,7-difluoro-5-(hydroxymethyl)-1,2,4,4a,5,6-hexahydro-[1,4]oxazino[4,3-a]quinolin-9-yl)-6-methylpyridin-3-yl)-3-(trifluoromethyl)benzamide]
Second: CCN1C(=O)C2CCOCCC2c2cc(-c3cc(NC(=O)c4ccnc(C(F)(F)F)c4)ccc3C)cnc21 (centres unmarked) [Example 248]
The IC50 of the first is 1.6-fold higher: 0.8 nM for the first, 0.5 nM for the second. The second is the more potent here.

Going from `Cc1ccc(NC(=O)c2ccnc(C(C)(F)F)c2)cc1-c1cnc2c(c1)N1CCOC[C@@H]1[C@@H](C(C)(C)O)C2` [Example 456, 2-(1,1-difluoroethyl)-N-(3-((4aS,5S)-5-(2-hydroxypropan-2-yl)-1,2,4,4a,5,6-hexahydro-[1,4]oxazino[4,3-a][1,5]naphthyridin-9-yl)-4-methylphenyl) isonicotinamide] to `Cc1ccc(NC(=O)c2ccnc(C(F)(F)F)c2)cc1-c1ccc2c(c1)N1CCOCC1c1cn(C)nc1-2` (racemic) [Example 45, (rac)-N-(4-methyl-3-(2-methyl-3b,4,6,7-tetrahydro-2H-[1,4]oxazino[4,3-a]pyrazolo[4,3-c]quinolin-10-yl)phenyl)-2-(trifluoromethyl)isonicotinamide], the IC50 falls from 0.7 nM to 0.17 nM (4.1-fold).

`CCN1C(=O)C2[C@H]3COC[C@H]3[C@@H]2c2cc(-c3cc(NC(=O)c4ccnc(C(F)(F)F)c4)ccc3C)cnc21` (stereo in doubt) [Example 268, N-(3-((6aS, 6bS, 9aS, 9bS)-5-ethyl-6-oxo-5,6,6a,6b,7,9,9a,9b-octahydrofuro[3′,4′: 3,4]cyclobuta[1,2-c][1,8]naphthyridin-2-yl)-4-methylphenyl)-2-(trifluoromethyl) isonicotinamide] and `Cc1ccc(NC(=O)c2ccnc(C(F)(F)F)c2)cc1-c1cnc2c(c1)N1CCOCC1C(C)(C)C2O` (single isomer, unassigned) [Example 334, N-(3-(6-hydroxy-5,5-dimethyl-1,2,4,4a,5,6-hexahydro-[1,4]oxazino[4,3-a][1,5]naphthyridin-9-yl)-4-methylphenyl)-2-(trifluoromethyl)isonicotinamide] are within 1.5-fold of each other in IC50: 0.3 nM for the first, 0.4 nM for the second.

`Cc1ncc(NC(=O)c2cccc(C(F)(F)F)c2)cc1-c1cnc2c(c1)N1CCOC[C@@H]1C[C@@H]2O` [Example 106, N-(5-((4aS,6S)-6-Hydroxy-1,2,4,4a,5,6-hexahydro-[1,4]oxazino[4,3-a][1,5]naphthyridin-9-yl)-6-methylpyridin-3-yl)-3-(trifluoromethyl)benzamide] and `Cc1ccc(NC(=O)c2ccnc(C(C)(F)F)c2)cc1-c1ccc2c(c1)N1CCOC[C@]1(C)C[C@@H]2O` (relative stereo) [Example 26] are within 1.5-fold of each other in IC50: 0.012 nM for the first, 0.014 nM for the second.

Compared with `Cc1ncc(NC(=O)c2cccc(C(F)(F)F)c2)cc1-c1ccc2c(c1)N1CCOCC1C(CO)(CO)C2` (racemic) [Example 51, (rac)-N-(5-(5,5-bis(hydroxymethyl)-1,2,4,4a,5,6-hexahydro-[1,4]oxazino[4,3-a]quinolin-9-yl)-6-methylpyridin-3-yl)-3-(trifluoromethyl)benzamide], `Cc1ccc(NC(=O)c2cc(C(C)(C)N)cc(C(F)(F)F)c2)cc1-c1ccc2c(c1)N1CCOC[C@H]1[C@](F)(CO)C2` [Example 392, 3-(2-aminopropan-2-yl)-N-(3-((4aS,5S)-5-fluoro-5-(hydroxymethyl)-1,2,4,4a.5,6-hexahydro-[1,4]oxazino[4,3-a]quinolin-9-yl)-4-methylphenyl)-5-(trifluoromethyl)benzamide] is 94-fold higher in IC50: 0.036 nM for the first, 3.4 nM for the second. The first is the more potent here.

Going from `Cc1ccc(NC(=O)c2ccnc(C(F)(F)F)c2)cc1-c1cnc2c(c1)C1C3COCC3C1C(=O)N2CCO` (centres unmarked) [Example 278, N-(3-(5-(2-hydroxyethyl)-6-oxo-5,6,6a,6b,7,9,9a,9b-octahydrofuro[3′,4′: 3,4]cyclobuta[1,2-c][1,8]naphthyridin 2-yl)-4-methylphenyl)-2-(trifluoromethyl) isonicotinamide] to `CCN1C(=O)[C@@H]2[C@H]3COC[C@H]3[C@@H]2c2cc(-c3cc(NC(=O)c4cccc(C(F)(F)F)c4)cnc3C)cnc21` [Example 272, N-(5-((6aS, 6bS, 9aS, 9bS)-5-ethyl-6-oxo-5,6,6a,6b,7,9,9a,9b-octahydrofuro[3′,4′: 3,4]cyclobuta[1,2-c][1,8]naphthyridin-2-yl)-6-methylpyridin-3-yl)-3-(trifluoromethyl) benzamide], the IC50 rises from 0.3 nM to 0.5 nM (1.7-fold).
